Molecules are shown by their SMILES. Where “and” joins values, the source holds several entries; their conditions need not be identical. Equal values may be shown once.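 Interpolation was linear, between the two tested concentrations surrounding the appropriate level; five concentrations were tested over 48 hours in 96-well plates. At the GI50, growth is halved. TGI: concentration producing complete growth inhibition.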 Bounds are passed on as bounds.

What all share (experiment): NCI-60 cell line screen, 48 h
Assay [1] concerns SR leukemia.
Assay [2] deals with HL-60(TB) leukemia.
Assay [3] relates to UACC-257 melanoma.
The subject of assay [4] is SF-539 CNS.
Assay [5] concerns NCI-H522 lung.
Assay [6] concerns MALME-3M melanoma.
For assay [7], the system named is ACHN renal.
The subject of assay [8] is SF-268 CNS.
The subject of assay [9] is A498 renal.
Assay [10] relates to RXF 393 renal.

Take `O=Cc1ccc2c(c1-c1c(C=O)ccc3c1OCO3)OCO2`: the TGI in [1], in [2], in assay [3], in assay [4], in assay [5] and in assay [6] was greater than 100 µM each time. For the same compound, the TGI in assay [7], in assay [8] and in [9] was greater than 100 µM in each case.

On to `CC(=O)[O][Ga]([Br])[O]C(C)=O`, for which the GI50 in assay [1], in assay [2], in [3], in assay [10], in [4] and in [5] was greater than 100 µM in each case. Besides, the GI50 in assay [6], in assay [7], in [8] and in assay [9] was greater than 100 µM throughout. For the same compound, the TGI in assay [1], in assay [2], in assay [3], in assay [10], in assay [4] and in [5] was greater than 100 µM each time. For the same compound, the TGI in [6], in assay [7], in assay [8] and in [9] was greater than 100 µM throughout.

In the case of `CCOC(=O)c1c(NC(=O)c2cccc(C(F)(F)F)c2)sc2c(CN(C)C)c(O)ccc12`, the GI50 is 3.16 µM in assay [1]; 1.89 µM in assay [2]; 1.76 µM in assay [3]; 1.81 µM in assay [10]; 3.41 µM in [4]; 5.03 µM in assay [5]. Besides, the GI50 is 1.71 µM in [6], 4.49 µM in [7], 4.69 µM in [8] and 12.4 µM in assay [9]. Besides, the TGI in assay [1] is 6.92 µM; in assay [2], 4.26 µM; in assay [3], 3.31 µM; in assay [10], 3.76 µM; in assay [4], 12.4 µM; in assay [5] it was 28 µM. Moreover, the TGI came out at 3.22 µM in assay [6], 15.8 µM in assay [7], 24.1 µM in assay [8] and 34.5 µM in assay [9].

Take `N=C(N)c1ccc2nc(-c3cc(CC(=O)N[C@@H](CC(=O)O)C(=O)O)cc(-c4cc(S(N)(=O)=O)ccc4O)c3O)[nH]c2c1`: the GI50 in assay [1], in assay [2], in [3], in assay [10], in assay [4] and in assay [5] was greater than 100 µM throughout. Further, the GI50 in assay [6], in assay [7], in [8] and in assay [9] was greater than 100 µM each time. Besides, the TGI in assay [1], in assay [2], in assay [3], in assay [10], in [4] and in assay [5] was greater than 100 µM in each case. The TGI in assay [6], in [7], in assay [8] and in assay [9] was greater than 100 µM in each case.

Consider `Cc1nc2sc3c(c2c(=O)[nH]1)CCCC3`, for which the TGI is 81.1 µM in [1]; greater than 100 µM in assay [2]; greater than 100 µM in assay [3]; greater than 100 µM in [10]; greater than 100 µM in assay [4]; greater than 100 µM in assay [5]. Also, the TGI in [6], in assay [7], in [8] and in assay [9] was greater than 100 µM throughout.

Regarding `N#CC(C(=O)C(=O)Nc1ccc(Cl)cc1)c1ccccc1` (stereo not drawn), the TGI in assay [1], in [2], in assay [3], in assay [10], in assay [4] and in assay [6] was greater than 100 µM in each case. For the same compound, the TGI in assay [7], in [8] and in [9] was greater than 100 µM in each case.

As for `COc1cc(OC)c(/C=C/c2c3ccccc3cc[n+]2C)c(OC)c1`, the GI50 in assay [1] is 2 µM; in assay [2] it was 0.811 µM; in assay [3], 0.674 µM; in assay [10] it was 4.99 µM; in assay [4] it was 2.1 µM; in [5], 1.52 µM. Also, the GI50 was 2.32 µM in assay [6], 10.9 µM in [7], 2.54 µM in [8] and 1 µM in assay [9]. Besides, the TGI in [1] was 41.2 µM; in assay [2], 7.32 µM; in [3] it was 6.01 µM; in assay [10], greater than 51.3 µM; in assay [4], 9.17 µM; in [5], 6.49 µM. For the same compound, the TGI in assay [6] is 15.4 µM; in assay [7] it was greater than 100 µM; in assay [8], 19.3 µM; in [9], 7.26 µM.

Regarding `O=C(Nc1ccc(-n2ccc3c(NC(=O)c4ccccc4)nccc32)cc1)Nc1ccc(Cl)c(Cl)c1`, the GI50 was 0.132 µM in assay [1]; 1.25 µM in assay [2]; 1.96 µM in assay [3]; 0.624 µM in assay [10]; 0.557 µM in assay [4]; 1.45 µM in assay [5]. For the same compound, the GI50 is 1.7 µM in assay [6], 1.22 µM in assay [7], 1.26 µM in [8] and 2.58 µM in assay [9]. The TGI in assay [1] worked out at 0.932 µM; in assay [2], 4.22 µM; in [3], 4.52 µM; in assay [10], 1.96 µM; in assay [4], 2.41 µM; in assay [5] it was 3.7 µM. In addition, the TGI was 3.78 µM in [6], 4.29 µM in assay [7], 5.97 µM in assay [8] and 7.58 µM in [9].

For the compound `Cc1cc(C)c(NC(=O)c2sc3nc4c(cc3c2N)CN(Cc2ccccc2)CC4)c(C)c1`, the GI50 in assay [1] is 1.83 µM; in [3] it was 6.71 µM; in assay [10] it was 2.45 µM; in assay [4] it was 2.44 µM; in assay [5] it was 1.6 µM; in [6], 3.44 µM. The GI50 in assay [7] is 6.31 µM; in assay [8], 6.93 µM; in assay [9], 1.31 µM. Further, the TGI was 10.7 µM in assay [1]; greater than 100 µM in assay [3]; 18.5 µM in [10]; 7.79 µM in assay [4]; 6.82 µM in assay [5]; 42 µM in [6]. The TGI was greater than 100 µM in [7], 64.8 µM in assay [8] and 7.71 µM in assay [9].

`CC[C@H]1CN2CCc3cc(OC)c(OC)cc3[C@@H]2C[C@@H]1C[C@H]1NCCc2c1[nH]c1ccc(O)cc21`: the GI50 was 0.0152 µM and 0.0333 µM in [1]; 0.0296 µM and 0.025 µM in [2]; 0.223 µM and 0.212 µM in assay [3]; 0.0194 µM and 0.0351 µM in assay [10]; 0.0211 µM and 0.0232 µM in assay [4]; 0.00347 µM and 0.00354 µM in assay [5]. The GI50 was 0.047 µM and 0.336 µM in [6]; 0.0782 µM and 0.121 µM in assay [7]; 0.0315 µM and 0.0253 µM in assay [8]; 0.191 µM in [9]. Besides, the TGI in assay [2] is 0.0955 µM and 0.0514 µM and 0.0353 µM; in assay [3], 0.666 µM and 0.69 µM and 0.643 µM; in assay [10], 0.0629 µM and 0.252 µM and 0.183 µM; in assay [4] it was 0.0476 µM and 0.0513 µM and 0.0408 µM; in assay [5] it was 0.0164 µM and 0.0108 µM; in [6] it was 0.113 µM and 0.744 µM and 0.184 µM. The TGI in assay [7] is 0.57 µM and 0.511 µM and 1.5 µM; in [8], 0.0931 µM and 0.075 µM and 0.263 µM; in [9] it was 0.136 µM and 0.507 µM and 0.223 µM.

As to `CC(C)N(CCn1c2c3ccccc3ccc2c2oc(=O)c3ccccc3c21)C(C)C`, the TGI was greater than 100 µM in assay [1]; greater than 100 µM in [2]; greater than 100 µM in assay [3]; greater than 100 µM in assay [10]; greater than 74.1 µM in assay [4]; greater than 100 µM in assay [5]. In addition, the TGI in assay [6], in assay [7], in [8] and in assay [9] was greater than 100 µM each time.

With `O=CN1CCN(CC(O)CN2CCCCC2)CC1` (stereo not drawn), the TGI in assay [1], in assay [2], in assay [3], in assay [10], in assay [5] and in assay [6] was greater than 100 µM each time. Further, the TGI in assay [7], in assay [8] and in assay [9] was greater than 100 µM each time.

As for `S=c1[nH]c(=S)c2nnn(-c3ccccc3)c2[nH]1`, the TGI in assay [1], in assay [2], in assay [3], in assay [10], in assay [4] and in [5] was greater than 100 µM each time. Moreover, the TGI in assay [6], in assay [7] and in assay [8] was greater than 100 µM in each case.

Regarding `O[C@H](c1cc(C(F)(F)F)nc2c(C(F)(F)F)cccc12)[C@@H]1CCCCN1`, the GI50 in assay [1] is 2.32 µM; in assay [2], 2.08 µM; in assay [3] it was 3.84 µM; in [10], 3.82 µM; in [4] it was 6.43 µM; in [6], 0.875 µM. Besides, the GI50 is 2.82 µM in assay [7], 3.54 µM in assay [8] and 8.98 µM in [9]. For the same compound, the TGI in assay [1] worked out at 9.5 µM; in assay [2] it was 4.51 µM; in [3], 9.11 µM; in [10] it was 13.5 µM; in assay [4] it was 15 µM; in [6] it was 5.73 µM. In addition, the TGI in assay [7] was 10.7 µM; in assay [8] it was 15 µM; in assay [9] it was 22.1 µM.

Take `CC1COC(C)(C)P(=O)(c2ccccc2)C1` (stereo not drawn): the TGI in assay [1], in [2], in assay [3], in assay [10], in assay [4] and in assay [5] was greater than 100 µM in each case. Besides, the TGI in [6], in assay [7] and in assay [9] was greater than 100 µM throughout.

For `O=[N+]([O-])c1ccc(N2N=C(c3ccc(NCc4nc5ccccc5[nH]4)cc3)CC2c2ccco2)cc1` (stereo not drawn), the TGI is 33.8 µM in [1]; 48.9 µM in [2]; greater than 100 µM in assay [10]; 84.4 µM in assay [4]; 54 µM in assay [5]; 66.4 µM in assay [6]. Further, the TGI in assay [7], in [8] and in assay [9] was greater than 100 µM in each case.

On to `Cc1ccc(NC(=O)CSc2nnc(-c3ccc(N=Cc4ccc(Cl)cc4)cc3)o2)cc1`, for which the TGI in assay [1], in assay [2], in [3], in assay [10], in [5] and in [6] was greater than 100 µM throughout. Also, the TGI in assay [7] and in assay [8] was greater than 100 µM throughout.

Consider `c1ccc2nc3c(nc2c1)sc1ccccc13`, for which the TGI in assay [1] was greater than 100 µM; in assay [2], greater than 100 µM; in assay [3] it was greater than 100 µM; in [4], 30.9 µM; in assay [5] it was greater than 100 µM; in assay [6], greater than 100 µM. Moreover, the figures for the TGI in assay [7], in assay [8] and in assay [9] were 35.7 µM, 46.1 µM and 78.2 µM, respectively.

For `Cc1c(/C=N/NC(=O)c2ccc(Cl)cc2)c(=O)n(-c2ccccc2)n1C`, the TGI in assay [1], in assay [2], in assay [3], in assay [10], in assay [4] and in assay [5] was greater than 100 µM in each case. Moreover, the TGI in [6], in [7] and in assay [8] was greater than 100 µM in each case.

Turning to `Cc1nc([N+](=O)[O-])cn1CC(=N)N`, the TGI in [1], in [2], in assay [3], in [10], in assay [4] and in [6] was greater than 100 µM each time. The TGI in [7], in assay [8] and in assay [9] was greater than 100 µM in each case.

As for `O=C1OCC2C1C1c3ccccc3C(O)c3ccccc3C21` (stereo not drawn), the TGI in [1], in assay [2], in assay [3], in assay [10], in assay [4] and in assay [6] was greater than 100 µM throughout. Besides, the TGI in assay [7], in [8] and in assay [9] was greater than 100 µM each time.
